# Legend:
# Type in all cases: functional
# Staphylococcus aureus [1] = assay: Antibacterial activity against Staphylococcus aureus MTCC 96 after 24 hr by paper disk diffusion method
# Aspergillus niger [2] = assay: Antifungal activity against Aspergillus niger MTCC 282 after 24 hr by paper disk diffusion method; also: test concentration or dose not given here
# Aspergillus niger [3] = assay: Antifungal activity against Aspergillus niger MTCC 282 after 48 hr by agar streak dilution method; conditions: MTCC 282, 48 h
# Candida albicans [4] = assay: Antifungal activity against Candida albicans MTCC 183 after 24 hr by paper disk diffusion method; also: test concentration or dose not given here
# Shigella flexneri [5] = assay: Antibacterial activity against Shigella flexneri MTCC 1457 after 24 hr by agar streak dilution method; conditions: MTCC 1457, 24 h
# Pseudomonas aeruginosa [6] = assay: Antibacterial activity against Pseudomonas aeruginosa MTCC 741 after 24 hr by agar streak dilution method; conditions: MTCC 741, 24 h
# Escherichia coli [7] = assay: Antibacterial activity against Escherichia coli MTCC 739 after 24 hr by agar streak dilution method; conditions: MTCC 739, 24 h
# Candida albicans [8] = assay: Antifungal activity against Candida albicans MTCC 183 after 48 hr by agar streak dilution method; conditions: MTCC 183, 48 h
# Escherichia coli [9] = assay: Antibacterial activity against Escherichia coli MTCC 739 after 24 hr by paper disk diffusion method
# Klebsiella pneumoniae [10] = assay: Antibacterial activity against Klebsiella pneumoniae MTCC 109 after 24 hr by agar streak dilution method; conditions: MTCC 109, 24 h
# Proteus vulgaris [11] = assay: Antibacterial activity against Proteus vulgaris MTCC 1771 after 24 hr by paper disk diffusion method; also: test concentration or dose not given here
# Shigella flexneri [12] = assay: Antibacterial activity against Shigella flexneri MTCC 1457 after 24 hr by paper disk diffusion method
# Proteus vulgaris [13] = assay: Antibacterial activity against Proteus vulgaris MTCC 1771 after 24 hr by agar streak dilution method; conditions: MTCC 1771, 24 h
# Bacillus cereus [14] = assay: Antibacterial activity against Bacillus cereus MTCC 619 after 24 hr by agar streak dilution method; conditions: MTCC 619, 24 h
# Staphylococcus aureus [15] = assay: Antibacterial activity against Staphylococcus aureus MTCC 96 after 24 hr by agar streak dilution method; conditions: MTCC 96, 24 h
# Bacillus cereus [16] = assay: Antibacterial activity against Bacillus cereus MTCC 619 after 24 hr by paper disk diffusion method; also: test concentration or dose not given here
# Salmonella typhi [17] = assay: Antibacterial activity against Salmonella enterica subsp. enterica serovar Typhi MTCC 733 after 24 hr by paper disk diffusion method
# Pseudomonas aeruginosa [18] = assay: Antibacterial activity against Pseudomonas aeruginosa MTCC 741 after 24 hr by paper disk diffusion method
# Salmonella typhi [19] = assay: Antibacterial activity against Salmonella enterica subsp. enterica serovar Typhi MTCC 733 after 24 hr by agar streak dilution method; conditions: MTCC 733, 24 h
# Klebsiella pneumoniae [20] = assay: Antibacterial activity against Klebsiella pneumoniae MTCC 109 after 24 hr by paper disk diffusion method
Compound,inhibition zone (IZ) (Staphylococcus aureus [1]) [mm],inhibition zone (IZ) (Aspergillus niger [2]) [mm],MIC (Aspergillus niger [3]) [µg/mL],inhibition zone (IZ) (Candida albicans [4]) [mm],MIC (Shigella flexneri [5]) [µg/mL],MIC (Pseudomonas aeruginosa [6]) [µg/mL],MIC (Escherichia coli [7]) [µg/mL],MIC (Candida albicans [8]) [µg/mL],inhibition zone (IZ) (Escherichia coli [9]) [mm],MIC (Klebsiella pneumoniae [10]) [µg/mL],inhibition zone (IZ) (Proteus vulgaris [11]) [mm],inhibition zone (IZ) (Shigella flexneri [12]) [mm],MIC (Proteus vulgaris [13]) [µg/mL],MIC (Bacillus cereus [14]) [µg/mL],MIC (Staphylococcus aureus [15]) [µg/mL],inhibition zone (IZ) (Bacillus cereus [16]) [mm],inhibition zone (IZ) (Salmonella typhi [17]) [mm],inhibition zone (IZ) (Pseudomonas aeruginosa [18]) [mm],MIC (Salmonella typhi [19]) [µg/mL],inhibition zone (IZ) (Klebsiella pneumoniae [20]) [mm]
Cn1c(=O)cc(Oc2nc(NCC(=O)O)nc(Nc3ccc(C#N)cc3)n2)c2ccccc21,<5,7,50,<5,50,50,50,> 50,<5,50,13,9,25,50,50,7,8,8,50,
CCOC(=O)CNc1nc(Nc2ccc(C#N)cc2)nc(Oc2cc(=O)n(C)c3ccccc23)n1,6,9,50,<5,50,50,50,> 50,7,50,15,11,12.5,50,50,9,8,<5,50,
CC(C)Nc1nc(Nc2ccc(C#N)cc2)nc(Oc2cc(=O)n(C)c3ccccc23)n1,8,8,50,7,50,50,50,50,9,50,8,8,50,25,50,13,6,<5,50,
Cn1c(=O)cc(Oc2nc(Nc3ccc(C#N)cc3)nc(NC3CC3)n2)c2ccccc21,<5,10,50,8,50,50,50,50,7,25,8,<5,50,25,50,11,<5,6,50,11
CCCCNc1nc(Nc2ccc(C#N)cc2)nc(Oc2cc(=O)n(C)c3ccccc23)n1,12,<5,> 50,6,50,25,50,50,<5,50,<5,7,50,50,50,8,6,11,50,
Cn1c(=O)cc(Oc2nc(Nc3ccc(C#N)cc3)nc(NC3CCCCC3)n2)c2ccccc21,14,9,50,10,50,50,50,50,8,12.5,7,9,50,50,6.25,10,<5,<5,50,13
Cn1c(=O)cc(Oc2nc(NCCCl)nc(Nc3ccc(C#N)cc3)n2)c2ccccc21,12,8,50,9,50,50,25,50,15,50,8,<5,50,50,25,11,13,7,25,
Cn1c(=O)cc(Oc2nc(NCCO)nc(Nc3ccc(C#N)cc3)n2)c2ccccc21,<5,<5,> 50,<5,50,50,50,> 50,<5,50,7,7,50,50,50,<5,9,9,50,
COc1ccc2[nH]cc(CCNc3nc(Nc4ccc(C#N)cc4)nc(Oc4cc(=O)n(C)c5ccccc45)n3)c2c1,15,12,25,15,50,50,50,25,9,50,6,12,50,25,6.25,13,<5,9,50,10
CNc1nc(Nc2ccc(C#N)cc2)nc(Oc2cc(=O)n(C)c3ccccc23)n1,11,<5,> 50,<5,50,6.25,50,> 50,<5,50,8,8,50,50,50,7,<5,14,50,
CN(C)c1nc(Nc2ccc(C#N)cc2)nc(Oc2cc(=O)n(C)c3ccccc23)n1,12,<5,> 50,<5,50,50,50,> 50,10,50,9,<5,50,12.5,50,14,7,8,50,
CCNc1nc(Nc2ccc(C#N)cc2)nc(Oc2cc(=O)n(C)c3ccccc23)n1,10,<5,> 50,<5,50,12.5,50,> 50,8,50,<5,7,50,50,50,<5,9,12,50,
CCN(CC)c1nc(Nc2ccc(C#N)cc2)nc(Oc2cc(=O)n(C)c3ccccc23)n1,13,9,50,9,50,50,50,50,11,50,<5,10,50,12.5,25,16,10,10,50,
